Measurements as given in patent publication US20240279202A1 (NURIX THERAPEUTICS, INC., priority 2021, published 2024).

Target: T1, ITK (Homo sapiens, UniProt Q08881)
T1 sequence (Q08881 1-620): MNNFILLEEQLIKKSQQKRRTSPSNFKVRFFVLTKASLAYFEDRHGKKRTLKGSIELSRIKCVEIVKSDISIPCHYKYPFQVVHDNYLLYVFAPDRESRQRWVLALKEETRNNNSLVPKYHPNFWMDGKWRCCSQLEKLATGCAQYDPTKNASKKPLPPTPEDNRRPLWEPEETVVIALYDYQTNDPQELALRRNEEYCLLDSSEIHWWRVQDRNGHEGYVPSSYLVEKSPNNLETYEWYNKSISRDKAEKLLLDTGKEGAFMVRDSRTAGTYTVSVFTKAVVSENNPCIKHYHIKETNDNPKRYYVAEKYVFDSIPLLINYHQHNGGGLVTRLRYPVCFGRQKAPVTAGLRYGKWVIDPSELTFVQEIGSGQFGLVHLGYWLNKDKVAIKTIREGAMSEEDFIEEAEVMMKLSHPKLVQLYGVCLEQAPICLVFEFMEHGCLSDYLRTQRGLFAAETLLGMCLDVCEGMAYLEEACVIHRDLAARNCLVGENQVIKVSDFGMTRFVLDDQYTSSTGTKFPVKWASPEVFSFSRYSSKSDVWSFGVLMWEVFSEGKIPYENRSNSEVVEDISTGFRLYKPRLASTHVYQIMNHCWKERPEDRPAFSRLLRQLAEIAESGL
Assay: ITK degradation HiBiT assay
Format: cell-based
Set-up: expressed in transfected cells; host or cells: Molt4 (ATCC CRL-1552), monoclonal clone 1C10, engineered to carry the HiBiT tag
Details: 4 hrs; for DC50: C-terminal HiBiT-tagged Molt4 cells; for Dmax: MOLT-4, C-terminal HiBiT-tagged Molt4 cells
Description: Itk Degradation Hibit Assay
Compounds provided herein were assayed in vitro with ITK HiBit cell lines. Compound dilution series (11-point, 5 fold dilutions in DMSO, columns 2-12 with replicate in rows A/B, C/D, E/F, G,H at 2000× the final required concentrations were prepared in 96 well plates (Falcon, cat. no. 353077). Column 1, rows A-H were control DMSO. The 2000× solutions ranged from 2 mM to 1.024 nM (final assay concentration range 1 μM to […]). The 2000× solutions were added to cells in […], for a final DMSO concentration of 0.5% and final assay compound concentration of 1×. For the cells, C-terminal HiBiT-tagged Molt4 cells (ATCC CRL-1552, monoclonal cell line clone 1C10) were plated at 1×10^6 cells/mL, 100 μL/well ([…]) in complete RPMI (10% FBS, 1% L-glutamine). The cells were incubated with compound 10 and compound 17 for 4 hrs at […]/6% CO2.
Following incubation, 100 μL of complete Nano-Glo HiBiT Lytic Detection Reagent (Nano-Glo HiBiT Lytic Buffer with 1:50 Nano-Glo HiBiT Lytic Substrate and 1:100 LgBiT Protein; Promega cat. no. N3040) was added. Cells were further incubated for 10 min at room temperature (RT). Luminescence units (LU) were read on an EnVision plate reader (Perkin Elmer, 0.1 sec per well). Percent ITK remaining per sample was calculated as follows: […]
Using Graphpad Prism, % ITK remaining values were plotted as a function of compound concentration. To determine DC50 and Dmax values, resulting curves were fit to the Prism curve-fitting equation “log(inhibitor) vs response—Variable slope (four parameters)” (reported best fit value IC50 used as DC50). ITK was measured with antibody-based MSD (Meso-Scale Discovery) assays shown below.

DC50 [nM] | Dmax [%] | Structure (SMILES)
0.45 | 80 | CC1(C)CCc2c(-c3cc4cc(F)c(C(=O)N5CCN(CC6CCN(c7ccc(C8CCC(=O)NC8=O)cn7)CC6)CC5)cc4[nH]3)n[nH]c2C1 (stereo not drawn) [Compound 136, 3-(6-(4-((4-(2-(6,6-dimethyl-4,5,6,7-tetrahydro-1H-indazol-3-yl)-5-fluoro-1H-indole-6-carbonyl)piperazin-1-yl)methyl)piperidin-1-yl)pyridin-3-yl)piperidine-2,6-dione]
– | 72 | C[C@@]12Cc3[nH]nc(C(=O)Nc4cnn(C5CCN(C(=O)C6CCN(c7ccc(C(=O)NC8CCC(=O)NC8=O)nc7)CC6)CC5)c4)c3C[C@@H]1C2(F)F (mixture of isomers) [Compound 180]
0.8 | 81 | C[C@@]12Cc3[nH]nc(-c4cc5ccc(C(=O)N6CCN(CC7CCN(c8ccc(C(=O)N[C@H]9CCC(=O)NC9=O)nc8)CC7)CC6)cc5[nH]4)c3C[C@@H]1C2(F)F [Compound 139, 5-(4-((4-(2-((4aS,5aR)-5,5-difluoro-5a-methyl-1,4,4a,5,5a,6-hexahydrocyclopropa[f]indazol-3-yl)-1H-indole-6-carbonyl)piperazin-1-yl)methyl)piperidin-1-yl)-N—((S)-2,6-dioxopiperidin-3-yl)picolinamide]
– | 88 | C[C@@]12Cc3[nH]nc(C(=O)Nc4cnn(C5CCN(C(=O)CC6CCN(c7ccc(C8CCC(=O)NC8=O)cn7)CC6)CC5)c4)c3C[C@@H]1C2(F)F (mixture of isomers) [Compound 166]
1.42 | 75 | CC1(C)CCc2c(-c3cc4ccc(C(=O)N5CCN(CC6CCN(c7ccc(C8CCC(=O)NC8=O)cc7F)CC6)CC5)cc4[nH]3)n[nH]c2C1 (stereo not drawn) [Compound 222, 3-{4-[4-({4-[2-(6,6-dimethyl-1,4,5,7-tetrahydroindazol-3-yl)-1H-indole-6-carbonyl]piperazin-1-yl}methyl)piperidin-1-yl]-3-fluorophenyl}piperidine-2,6-dione]
– | 88 | Cn1c(=O)n(C2CCC(=O)NC2=O)c2cccc(N3CCC(C(=O)N4CCC(n5cc(NC(=O)c6n[nH]c7c6C[C@@H]6C(F)(F)[C@]6(C)C7)cn5)CC4)CC3)c21 (mixture of isomers) [Compound 171]
– | 87 | CC1(C)CCc2c(-c3cc4ccc(C(=O)N5CCN(CCC6CCN(c7cc(C8CCC(=O)NC8=O)ccn7)CC6)CC5)cc4[nH]3)n[nH]c2C1 (stereo not drawn) [Compound 186]
8.5 | 84 | C[C@@]12Cc3[nH]nc(-c4cc5ccc(C(=O)N6CCN(CC7CCN(c8ccc(C9CCC(=O)NC9=O)cc8)CC7)CC6)cc5[nH]4)c3C[C@@H]1C2 (mixture of isomers) [Compound 225, (3RS)-3-(4-{4-[(4-{2-[(4aS,5aR)-5a-Methyl-1H,4H,4aH,5H,6H-cyclopropa[f]indazol-3-yl]-1H-indole-6-carbonyl}piperazin-1-yl)methyl]piperidin-1-yl}phenyl)piperidine-2,6-dione]
– | 87 | C[C@@]12Cc3[nH]nc(C(=O)Nc4cnn(CC5CCN(C(=O)C6CCN(c7ccc(C8CCC(=O)NC8=O)cc7)CC6)CC5)c4)c3C[C@@H]1C2(F)F (mixture of isomers) [Compound 173]
– | 80 | C[C@@]12Cc3[nH]nc(-c4cc5cc(C(=O)N6CCN(CC7CCN(c8ccc(C(=O)N[C@H]9CCC(=O)NC9=O)nc8)CC7)CC6)ccc5[nH]4)c3C[C@@H]1C2(F)F [Compound 142]

More lines, now with the values behind:

Structure (SMILES) | DC50 [nM] | Dmax [%]
CC1(C)CCc2c(-c3cc4ccc(C(=O)N5CCN(CC6CCN(c7ccc8c(c7)CN(C7CCC(=O)NC7=O)C8=O)CC6)CC5)cc4[nH]3)n[nH]c2C1 (stereo not drawn) [Compound 26, 3-{5-[4-({4-[2-(6,6-dimethyl-1,4,5,7-tetrahydroindazol-3-yl)-1H-indole-6-carbonyl]piperazin-1-yl}methyl)piperidin-1-yl]-1-oxo-3H-isoindol-2-yl}piperidine-2,6-dione] | < 0.01 | 88
C[C@@]12Cc3[nH]nc(C(=O)Nc4cnn([C@@H]5CCN(C[C@@H]6CCN(c7ccc(C8CCC(=O)NC8=O)cc7)C6)C[C@H]5F)c4)c3C[C@@H]1C2(F)F (stereo partly drawn) [Compound 101, (4aS,5aR)-N-(1-((3R,4R)-1-(((3S)-1-(4-(2,6-dioxopiperidin-3-yl)phenyl)pyrrolidin-3-yl)methyl)-3-fluoropiperidin-4-yl)-1H-pyrazol-4-yl)-5,5-difluoro-5a-methyl-1,4,4a,5,5a,6-hexahydrocyclopropa[f]indazole-3-carboxamide] | 1.1 | 87
C[C@@]12Cc3[nH]nc(-c4cc5ccc(C(=O)N6CC7CCC(C6)N7CC6CCN(c7ccc(C8CCC(=O)NC8=O)cc7)CC6)cc5[nH]4)c3C[C@@H]1C2(F)F (mixture of isomers) [Compound 154] | – | 76
C[C@@]12Cc3[nH]nc(C(=O)Nc4ccc(C5CCN(CC6CCN(c7ccc(C8CCC(=O)NC8=O)cn7)CC6)CC5)nc4)c3C[C@@H]1C2(F)F (stereo partly drawn) [Compound 111, (4aS,5aR)-N-(6-(1-((1-(5-(2,6-dioxopiperidin-3-yl)pyridin-2-yl)piperidin-4-yl)methyl)piperidin-4-yl)pyridin-3-yl)-5,5-difluoro-5a-methyl-1,4,4a,5,5a,6-hexahydrocyclopropa[f]indazole-3-carboxamide] | 1.2 | 90
CN(C(=O)CCC1CCN(c2ccc(C3CCC(=O)NC3=O)cn2)C1)c1ccc2cc(-c3n[nH]c4c3C[C@@H]3C(F)(F)[C@]3(C)C4)[nH]c2c1 (stereo partly drawn) [Compound 70, N-(2-((4aS,5aR)-5,5-difluoro-5a-methyl-1,4,4a,5,5a,6-hexahydrocyclopropa[f]indazol-3-yl)-1H-indol-6-yl)-3-(1-(5-(2,6-dioxopiperidin-3-yl)pyridin-2-yl)pyrrolidin-3-yl)-N-methylpropanamide] | – | 53
C[C@@]12Cc3[nH]nc(C(=O)Nc4ccc(C5CCN(CC6CCN(c7ccc(C8CCC(=O)NC8=O)cn7)CC6)CC5)cc4)c3C[C@@H]1C2(F)F (stereo partly drawn) [Compound 109, (4aS,5aR)-N-(4-(1-((1-(5-(2,6-dioxopiperidin-3-yl)pyridin-2-yl)piperidin-4-yl)methyl)piperidin-4-yl)phenyl)-5,5-difluoro-5a-methyl-1,4,4a,5,5a,6-hexahydrocyclopropa[f]indazole-3-carboxamide] | 0.73 | 91
C[C@@]12Cc3[nH]nc(C(=O)Nc4cnn(C5CCC(CN6CCN(c7ccc(C8CCC(=O)NC8=O)cn7)CC6)CC5)c4)c3C[C@@H]1C2(F)F (mixture of isomers) [Compound 125, (4aS,5aR)-5,5-difluoro-5a-methyl-N-{1-[(1rs,4rs)-4-[(4-{5-[(3RS)-2,6-dioxopiperidin-3-yl]pyridin-2-yl}piperazin-1-yl)methyl]cyclohexyl]-1H-pyrazol-4-yl}-1H,4H,4aH,5H,5aH,6H-cyclopropa[f]indazole-3-carboxamide] | 3.3 | 88
C[C@@]12Cc3[nH]nc(C(=O)Nc4cnn(C5CN(CC6CCN(c7ccc(C8CCC(=O)NC8=O)cc7)CC6)C5)c4)c3C[C@@H]1C2(F)F (stereo partly drawn) [Compound 91, (4aS,5aR)-N-(1-(1-((1-(4-(2,6-dioxopiperidin-3-yl)phenyl)piperidin-4-yl)methyl)azetidin-3-yl)-1H-pyrazol-4-yl)-5,5-difluoro-5a-methyl-1,4,4a,5,5a,6-hexahydrocyclopropa[f]indazole-3-carboxamide] | 0.24 | 85
C[C@@]12Cc3[nH]nc(C(=O)Nc4cnn([C@H]5CC[C@H](CN6CCN(c7ccc(C(=O)NC8CCC(=O)NC8=O)nc7)CC6)CC5)c4)c3C[C@@H]1C2(F)F (mixture of isomers) [Compound 127, N-[(3SR)-2,6-dioxopiperidin-3-yl]-5-(4-{[(1rs,4rs)-4-{4-[(4aS,5aR)-5,5-difluoro-5a-methyl-1H,4H,4aH,5H,5aH,6H-cyclopropa[f]indazole-3-amido]-1H-pyrazol-1-yl}cyclohexyl]methyl}piperazin-1-yl)pyridine-2-carboxamide] | 19.1 | 69
